This assay concerns the target T1, PPARδ (Homo sapiens, UniProt Q03181).
T1 construct: fused to amino acids 147-441 of PPARδ downstream of CMV promoter; expressed in transfected cells; host or cells: HEK293 cells, transiently transfected with pFACMV-PPARδ using Fugene
T1 sequence (Q03181 147-441): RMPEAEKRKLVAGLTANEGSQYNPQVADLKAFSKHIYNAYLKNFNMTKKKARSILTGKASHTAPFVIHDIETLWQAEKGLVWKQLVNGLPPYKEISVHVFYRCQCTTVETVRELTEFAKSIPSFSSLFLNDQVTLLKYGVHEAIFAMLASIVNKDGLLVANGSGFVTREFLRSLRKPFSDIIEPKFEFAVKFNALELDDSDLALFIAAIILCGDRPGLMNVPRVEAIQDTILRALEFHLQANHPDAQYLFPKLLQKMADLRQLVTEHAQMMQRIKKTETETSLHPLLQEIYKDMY
Nature of the assay: Transactivation assay (PPARδ GAL4 assay) in transiently transfected HEK293 cells. To be noted: luciferase reporter, Table 2. Format: cell-based. The essentials: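 Luciferase luminescence after 24 h compound treatment (0-30 μM final, OptiMEM, 37° C./5% CO2) gave EC50 by sigmoidal fitting, with activity normalised to GW501516 as percent. Reporter system: transiently transfected HEK293 expressing GAL4 DNA-binding domain fused to human PPARδ aa 147-441, plus 5×GAL4-driven luciferase.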
On the technique in general: Reporter assays use an easily measured gene product as a stand-in for the process of interest.

Among the data in US20100063065A1 (Inpharmatica Limited, priority 2005, published 2010) are EC50 values, retold here.

Molecules are shown by their SMILES.

Regarding `CCc1cc(C(=O)c2ccc(OC(F)(F)F)cc2)c(NC(=O)C(C)(C)SC(C)C(=O)O)s1` (stereo not drawn) [Example 108, 2-{1-[5-Ethyl-3-(4-trifluoromethoxy-benzoyl)-thiophen-2-ylcarbamoyl]-1-methyl-ethylsulfanyl}-propionic acid], the EC50 (as a rule, the concentration at which the effect is half-maximal) is < 100 nM.

As for `CCc1cc(C(=O)c2ccc(OC(F)(F)F)cc2)c(NC(=O)C(CC)SCC(=O)O)s1` (stereo not drawn) [Example 109, {1-[5-Ethyl-3-(4-trifluoromethoxy-benzoyl)-thiophen-2-ylcarbamoyl]-propylsulfanyl}-acetic acid], the EC50 was < 100 nM.

Take `CCc1cc(C(=O)c2ccc(OC(F)(F)F)cc2)c(NC(=O)C(CC)SC(C)C(=O)O)s1` (stereo not drawn) [Example 110, 2-{1-[5-Ethyl-3-(4-trifluoromethoxy-benzoyl)-thiophen-2-ylcarbamoyl]-propylsulfanyl}-propionic acid]: the EC50 is < 100 nM.

`CCc1cc(C(=O)c2ccc(OC)cc2)c(NC(=O)CSC(C)C(=O)O)s1` (stereo not drawn) [Example 111, 2-{[5-Ethyl-3-(4-methoxy-benzoyl)-thiophen-2-ylcarbamoyl]-methylsulfanyl}-propionic acid] gave an EC50 of 100 to 1000 nM.

As for `CCc1cc(C(=O)c2ccc(OC(F)(F)F)cc2)c(NC(=O)CSC(C)C(=O)O)s1` (stereo not drawn) [Example 112, 2-{[5-Ethyl-3-(4-trifluoromethoxy-benzoyl)-thiophen-2-ylcarbamoyl]-methylsulfanyl}-propionic acid], the EC50 is < 100 nM.

As for `CCc1cc(C(=O)c2ccc(OC(F)(F)F)cc2)c(NC(=O)C(SCC(=O)O)c2ccccc2)s1` (stereo not drawn) [Example 113, {[5-Ethyl-3-(4-trifluoromethoxy-benzoyl)-thiophen-2-ylcarbamoyl]-phenyl-methylsulfanyl}-acetic acid], the EC50 is < 100 nM.

As for `CCc1cc(C(=O)c2ccc(OC(F)(F)F)cc2)c(NC(=O)C(SCC(=O)O)C(C)C)s1` (stereo not drawn) [Example 114, {1-[5-Ethyl-3-(4-trifluoromethoxy-benzoyl)-thiophen-2-ylcarbamoyl]-2-methyl-propylsulfanyl}-acetic acid], the EC50 lay in the range of 100 to 1000 nM.

The compound `CCc1cc(C(=O)c2ccc(OC(F)(F)F)cc2)c(NC(=O)c2ccc(NCC(=O)O)cc2)s1` [Example 115, {4-[5-Ethyl-3-(4-trifluoromethoxy-benzoyl)-thiophen-2-ylcarbamoyl]-phenylamino}-acetic acid] had an EC50 of 100 to 1000 nM.

With `CCc1cc(C(=O)c2ccc(OC(F)(F)F)cc2)c(NC(=O)c2ccc(CCC(=O)O)cc2)s1` [Example 116, 3-{4-[5-Ethyl-3-(4-trifluoromethoxy-benzoyl)-thiophen-2-ylcarbamoyl]-phenyl}-propionic acid], the EC50 lay in the range of 100 to 1000 nM.

As to `CCc1cc(C(=O)c2ccc(OC(F)(F)F)cc2)c(NC(=O)COc2ccc(OCC(=O)O)cc2)s1` [Example 117, (4-{[5-Ethyl-3-(4-trifluoromethoxy-benzoyl)-thiophen-2-ylcarbamoyl]-methoxy}-phenoxy)-acetic acid], the EC50 was 1000 to 30000 nM.

In the case of `CCc1cc(C(=O)c2ccc(OC(F)(F)F)cc2)c(NC(=O)C(C)(C)NCC(=O)O)s1` [Example 118, {1-[5-Ethyl-3-(4-trifluoromethoxy-benzoyl)-thiophen-2-ylcarbamoyl]-1-methyl-ethylamino}-acetic acid], the EC50 was in the range of 100 to 1000 nM.

Compound `CCc1cc(C(=O)c2ccc(OC(F)(F)F)cc2)c(NC(=O)C(C)(C)N2CCC[C@@H]2C(=O)O)s1` [Example 119, (R)-1-{1-[5-Ethyl-3-(4-trifluoromethoxy-benzoyl)-thiophen-2-ylcarbamoyl]-1-methyl-ethyl}-pyrrolidine-2-carboxylic acid] displayed an EC50 of 100 to 1000 nM.

Take `CCc1cc(C(=O)c2ccc(OC(F)(F)F)cc2)c(NC(=O)C(CC)N2CCC[C@@H]2C(=O)O)s1` (stereo partly drawn) [Example 120, (R)-1-{1-[5-Ethyl-3-(4-trifluoromethoxy-benzoyl)-thiophen-2-ylcarbamoyl]-propyl}-pyrrolidine-2-carboxylic acid]: the EC50 was < 100 nM.

Compound `CCc1cc(C(=O)c2ccc(OC(F)(F)F)cc2)c(NC(=O)C(CC)NCC(=O)O)s1` (stereo not drawn) [Example 121, {1-[5-Ethyl-3-(4-trifluoromethoxy-benzoyl)-thiophen-2-ylcarbamoyl]-propylamino}-acetic acid] returned an EC50 of 100 to 1000 nM.

`CCc1cc(C(=O)c2ccc(OC(F)(F)F)cc2)c(NC(=O)C(NCC(=O)O)c2ccccc2)s1` (stereo not drawn) [Example 122, ({[5-Ethyl-3-(4-trifluoromethoxy-benzoyl)-thiophen-2-ylcarbamoyl]-phenyl-methyl}-amino)-acetic acid]: the EC50 was 100 to 1000 nM.

With `CCc1cc(C(=O)c2ccc(OC(F)(F)F)cc2)c(NC(=O)C(C)N2CCC[C@@H]2C(=O)O)s1` (stereo partly drawn) [Example 123, (R)-1-{1-[5-Ethyl-3-(4-trifluoromethoxy-benzoyl)-thiophen-2-ylcarbamoyl]-ethyl}-pyrrolidine-2-carboxylic acid], the EC50 was < 100 nM.

In turn, `CCc1cc(C(=O)c2ccc(OC(F)(F)F)cc2)c(NC(=O)C(c2ccccc2)N2CCC[C@@H]2C(=O)O)s1` (stereo partly drawn) [Example 124, (R)-1-{[5-Ethyl-3-(4-trifluoromethoxy-benzoyl)-thiophen-2-ylcarbamoyl]-phenyl-methyl}-pyrrolidine-2-carboxylic acid] returned an EC50 of 100 to 1000 nM.

As to `CCc1cc(C(=O)c2ccc(OC(F)(F)F)cc2)c(NC(=O)CN(CC)[C@@H](C)C(=O)O)s1` [Example 125, (S)-2-(Ethyl-{[5-ethyl-3-(4-trifluoromethoxy-benzoyl)-thiophen-2-ylcarbamoyl]-methyl}-amino)-propionic acid], the EC50 was in the range of 100 to 1000 nM.

On to `CCc1cc(C(=O)c2ccc(OC(F)(F)F)cc2)c(NC(=O)CN([C@@H](C)C(=O)O)S(C)(=O)=O)s1` [Example 126, (S)-2-({[5-Ethyl-3-(4-trifluoromethoxy-benzoyl)-thiophen-2-ylcarbamoyl]-methyl}-methanesulfonyl-amino)-propionic acid], for which the EC50 was 1000 to 30000 nM.

With `CCc1cc(C(=O)c2ccc(OC(F)(F)F)cc2)c(NC(=O)CSC(CC)C(=O)O)s1` (stereo not drawn) [Example 127, 2-{[5-Ethyl-3-(4-trifluoromethoxy-benzoyl)-thiophen-2-ylcarbamoyl]-methylsulfanyl}-butyric acid], the EC50 was < 100 nM.

With `CCc1cc(C(=O)c2ccc(OC(F)(F)F)cc2)c(NC(=O)CSC(C(=O)O)c2ccccc2)s1` (stereo not drawn) [Example 128, {[5-Ethyl-3-(4-trifluoromethoxy-benzoyl)-thiophen-2-ylcarbamoyl]-methylsulfanyl}-phenyl-acetic acid], the EC50 is 100 to 1000 nM.

Turning to `CCc1cc(C(=O)c2ccc(OC(F)(F)F)cc2)c(NC(=O)CS[C@@H](C)C(=O)O)s1` [Example 129, (S)-2-{[5-Ethyl-3-(4-trifluoromethoxy-benzoyl)-thiophen-2-ylcarbamoyl]-methylsulfanyl}-propionic acid], the EC50 is < 100 nM.

For `CCc1cc(C(=O)c2ccc(OC(C)C)c(Cl)c2)c(NC(=O)CSCC(=O)O)s1` [Example 130, {[3-(3-Chloro-4-isopropoxy-benzoyl)-5-ethyl-thiophen-2-ylcarbamoyl]-methylsulfanyl}-acetic acid], the EC50 lay in the range of 100 to 1000 nM.

Turning to `CCc1cc(C(=O)c2ccc(OC(F)(F)F)c(F)c2)c(NC(=O)CSCC(=O)O)s1` [Example 131, {[5-Ethyl-3-(3-fluoro-4-trifluoromethoxy-benzoyl)-thiophen-2-ylcarbamoyl]-methylsulfanyl}-acetic acid], the EC50 was < 100 nM.
